Measured values taken from ChEMBL document CHEMBL6109102, “Conjugation with the XJB peptide enhanced neuroprotective effect of honokiol via SIRT3 modulation” (Eur J Med Chem, 2025).
Calls of active or inactive are those of the source. The rule behind the calls is not given here.

Key:
PC-12 [1] = assay: Inhibition of apoptosis in H2O2-induced rat PC12 cells assessed as late apoptotic cells at 2.5 uM incubated with compound for 24 hrs followed by H2O2 addition and measured after 24 hrs by Annexin V-FITC/PI staining based flow cytometry analysis (reference value: 2.64%); assay type: functional; parameters: scale not given: the % may be the effect or the level left
PC-12 [2] = assay: Neuroprotective activity against H2O2-induced cell injury in rat PC12 cells assessed as cell viability at 2 uM incubated for 24 hrs by MTT assay; assay type: functional, cell-based
Danio rerio = assay: Anti-alzheimer activity in scopolamine induced zebrafish alzheimer disease model assessed as increase in total swimming distance at 1.25 to 5 uM administered for 6 days post fertilization; assay type: functional, organism-based; details: dose 1.25-5 µM, time 6.0 day
PC-12 [3] = assay: Cytotoxicity against rat PC12 cells assessed as inhibition of cell viability at 30 uM incubated for 24 hrs by MTT assay; assay type: functional, cell-based
PC-12 [4] = assay: Inhibition of apoptosis in H2O2-induced rat PC12 cells assessed as early apoptotic cells at 2.5 uM incubated with compound for 24 hrs followed by H2O2 addition and measured after 24 hrs by Annexin V-FITC/PI staining based flow cytometry analysis (reference value: 1.09%); assay type: functional; parameters: scale not given: the % may be the effect or the level left
PC-12 [5] = assay: Inhibition of apoptosis in H2O2-induced rat PC12 cells assessed as viable cells at 1.25 uM incubated with compound for 24 hrs followed by H2O2 addition and measured after 24 hrs by Annexin V-FITC/PI staining based flow cytometry analysis (reference value: 91.4%); assay type: functional; details: read-out: Activity
PC-12 [6] = assay: Inhibition of apoptosis in H2O2-induced rat PC12 cells assessed as early apoptotic cells at 5 uM incubated with compound for 24 hrs followed by H2O2 addition and measured after 24 hrs by Annexin V-FITC/PI staining based flow cytometry analysis (reference value: 1.09%); assay type: functional; parameters: scale not given: the % may be the effect or the level left
PC-12 [7] = assay: Anti-apoptotic activity in H2O2-induced rat PC12 cells assessed as increase in PARP protein expression at 1.25 to 5 uM by Western blot analysis; assay type: functional, cell-based; details: dose 1.25-5 µM
PC-12 [8] = assay: Inhibition of apoptosis in H2O2-induced rat PC12 cells assessed as necrotic cells at 1.25 uM incubated with compound for 24 hrs followed by H2O2 addition and measured after 24 hrs by Annexin V-FITC/PI staining based flow cytometry analysis (reference value: 4.05%); assay type: functional; parameters: scale not given: the % may be the effect or the level left
PC-12 [9] = assay: Inhibition of apoptosis in H2O2-induced rat PC12 cells assessed as necrotic cells at 5 uM incubated with compound for 24 hrs followed by H2O2 addition and measured after 24 hrs by Annexin V-FITC/PI staining based flow cytometry analysis (reference value: 4.05%); assay type: functional; parameters: scale not given: the % may be the effect or the level left
PC-12 [10] = assay: Inhibition of apoptosis in H2O2-induced rat PC12 cells assessed as late apoptotic cells at 1.25 uM incubated with compound for 24 hrs followed by H2O2 addition and measured after 24 hrs by Annexin V-FITC/PI staining based flow cytometry analysis (reference value: 2.64%); assay type: functional; parameters: scale not given: the % may be the effect or the level left
PC-12 [11] = assay: Inhibition of apoptosis in H2O2-induced rat PC12 cells assessed as viable cells at 2.5 uM incubated with compound for 24 hrs followed by H2O2 addition and measured after 24 hrs by Annexin V-FITC/PI staining based flow cytometry analysis (reference value: 91.4%); assay type: functional; details: read-out: Activity
PC-12 [12] = assay: Neuroprotective activity against H2O2-induced cell injury in rat PC12 cells assessed as cell viability incubated for 24 hrs by MTT assay; assay type: functional, cell-based; details: dose 0.37-30 µM
PC-12 [13] = assay: Cytoprotective activity against H2O2-induced cell injury in rat PC12 cells at 2.5 uM incubated with compound for 24 hrs followed by H2O2 addition and measured up to 96 hrs by Real-time cell analysis; assay type: functional, cell-based; details: time <= 120.0 hrs
PC-12 [14] = assay: Inhibition of apoptosis in H2O2-induced rat PC12 cells assessed as necrotic cells at 2.5 uM incubated with compound for 24 hrs followed by H2O2 addition and measured after 24 hrs by Annexin V-FITC/PI staining based flow cytometry analysis (reference value: 4.05%); assay type: functional; parameters: scale not given: the % may be the effect or the level left
PC-12 [15] = assay: Inhibition of apoptosis in H2O2-induced rat PC12 cells assessed as viable cells at 5 uM incubated with compound for 24 hrs followed by H2O2 addition and measured after 24 hrs by Annexin V-FITC/PI staining based flow cytometry analysis (reference value: 91.4%); assay type: functional; details: read-out: Activity
PC-12 [16] = assay: Inhibition of apoptosis in H2O2-induced rat PC12 cells assessed as late apoptotic cells at 5 uM incubated with compound for 24 hrs followed by H2O2 addition and measured after 24 hrs by Annexin V-FITC/PI staining based flow cytometry analysis (reference value: 2.64%); assay type: functional; parameters: scale not given: the % may be the effect or the level left
PC-12 [17] = assay: Inhibition of apoptosis in H2O2-induced rat PC12 cells assessed as early apoptotic cells at 1.25 uM incubated with compound for 24 hrs followed by H2O2 addition and measured after 24 hrs by Annexin V-FITC/PI staining based flow cytometry analysis (reference value: 1.09%); assay type: functional; parameters: scale not given: the % may be the effect or the level left
PC-12 [18] = assay: (§1) Neuroprotective activity in H2O2-induced rat PC12 cells assessed as reversal of mitochondrial membrane potential reduction by measuring red fluorescence fold change at 1.5 uM incubated with compound for 24 hrs followed by H2O2 addition and measured after 24 hrs by JC-1 based fluorescence microscopic analysis (reference value: 1.00); assay type: functional
PC-12 [19] = assay: as §1, with “measuring green” for “measuring red”, “fluorescence” for “fluorescence fold change”, “at 5” for “at 1.5”, “value: 4.90 a.u.)” for “value: 1.00)”; assay type: functional
PC-12 [20] = assay: Neuroprotective activity in H2O2-induced rat PC12 cells assessed as reduction in cell viability in presence of 3-TYP at 10 uM; assay type: functional, cell-based
PC-12 [21] = assay: Induction of autophagy in H2O2-induced rat PC12 cells assessed as upregulation of LC3-II/I ratio by Western blot analysis; assay type: functional, cell-based; details: dose 1.25-5 µM
SH-SY5Y = assay: Cytotoxicity against human SH-SY5Y cells assessed as inhibition of cell viability at 100 uM incubated for 24 hrs by MTT assay; assay type: functional, cell-based
PC-12 [22] = assay: Neuroprotective activity in H2O2-induced rat PC12 cells assessed as suppression of Mfn-1 expression in presence of 3-TYP by Western blot analysis; assay type: functional, cell-based
PC-12 [23] = assay: Induction of autophagy in rat PC12 cells assessed as reduction of LC3-II/I ratio in presence of 3-TYP by Western blot analysis; assay type: functional, cell-based
PC-12 [24] = assay: Neuroprotective activity in H2O2-induced rat PC12 cells assessed as upregulation of p-AMPK/AMPK ratio at 1.25 to 5 uM by Western blot analysis; assay type: functional, cell-based; details: dose 1.25-5 µM
PC-12 [25] = assay: Neuroprotective activity in H2O2-induced rat PC12 cells assessed as upregulation of Mfn-1 expression at 1.25 to 5 uM by Western blot analysis; assay type: functional, cell-based; details: dose 1.25-5 µM
PC-12 [26] = assay: as §1, with “fluorescence” for “fluorescence fold change”, “5” for “1.5”, “21.62 a.u.)” for “1.00)”; assay type: functional
[27] = Drug uptake in cytoplasm of rat PC12 cells at 8 uM incubated for 8.5 hrs by HPLC analysis; assay type: ADME, subcellular; details: pc12, 8.5 h
PC-12 [28] = assay: Induction of autophagy in H2O2-induced rat PC12 cells assessed as downregulation of P62 expression by Western blot analysis; assay type: functional, cell-based; details: dose 1.25-5 µM
PC-12 [29] = assay: as §1, with “5” for “1.5”; assay type: functional
PC-12 [30] = assay: as §1, with “measuring green” for “measuring red”, “fluorescence” for “fluorescence fold change”, “at 2.5” for “at 1.5”, “value: 4.90 a.u.)” for “value: 1.00)”; assay type: functional
PC-12 [31] = assay: as §1, with “measuring green” for “measuring red”; assay type: functional
[32] = Drug uptake in mitochondria of rat PC12 cells at 8 uM incubated for 8.5 hrs by HPLC analysis; assay type: ADME; details: pc12, 8.5 h
PC-12 [33] = assay: as §1, with “measuring green” for “measuring red”, “at 2.5” for “at 1.5”; assay type: functional
PC-12 [34] = assay: as §1, with “2.5” for “1.5”; assay type: functional
[35] = Drug uptake in rat PC12 cells at 8 uM incubated for 8.5 hrs by HPLC analysis; assay type: ADME, cell-based; details: pc-12, 8.5 h
PC-12 [36] = assay: as §1, with “measuring green” for “measuring red”, “fluorescence” for “fluorescence fold change”, “value: 4.90 a.u.)” for “value: 1.00)”; assay type: functional
PC-12 [37] = assay: as §1, with “fluorescence” for “fluorescence fold change”, “1.25” for “1.5”, “21.62 a.u.)” for “1.00)”; assay type: functional
PC-12 [38] = assay: as §1, with “fluorescence” for “fluorescence fold change”, “2.5” for “1.5”, “21.62 a.u.)” for “1.00)”; assay type: functional
PC-12 [39] = assay: as §1, with “measuring green” for “measuring red”, “at 5” for “at 1.5”; assay type: functional
PC-12 [40] = assay: Neuroprotective activity in H2O2-induced rat PC12 cells assessed as upregulation of SIRT-3 level at 1.25 to 5 uM by Western blot analysis; assay type: functional, cell-based; details: dose 1.25-5 µM

C=CCc1ccc(OCCCNC(=O)[C@H](CCCNC(=O)OCc2ccccc2)NC(=O)[C@@H](NC(=O)[C@@H]2CCCN2C(=O)[C@@H](Cc2ccccc2)NC(=O)[C@H](CC(C)C)NC(=O)OC(C)(C)C)C(C)C)c(-c2ccc(O)c(CC=C)c2)c1
Activity (PC-12 [1]): 2.87%
Activity (PC-12 [2]): Active
Activity (Danio rerio): Active
Activity (PC-12 [3]): inactive
Activity (PC-12 [4]): 11.6%
viability at 1.25 µM (PC-12 [5]): 76.6%
Activity (PC-12 [6]): 8.97%
Activity (PC-12 [7]): Active
Activity (PC-12 [8]): 1.4%
Activity (PC-12 [9]): 1.58%
Activity (PC-12 [10]): 4.86%
viability at 2.5 µM (PC-12 [11]): 83.9%
Activity (PC-12 [12]): Dose-dependent-effect
Activity (PC-12 [13]): Active
Activity (PC-12 [14]): 1.66%
viability at 5 µM (PC-12 [15]): 86.8%
Activity (PC-12 [16]): 2.69%
Activity (PC-12 [17]): 17.2%

C=CCc1ccc(O)c(-c2ccc(OCCCNC(=O)[C@H](CCCNC(=O)OCc3ccccc3)NC(=O)[C@@H](NC(=O)[C@@H]3CCCN3C(=O)[C@@H](Cc3ccccc3)NC(=O)[C@H](CC(C)C)NC(=O)OC(C)(C)C)C(C)C)c(CC=C)c2)c1
fold change (FC) (PC-12 [18]): 0.14
Activity (PC-12 [19]): 4.76 a.u.
Activity (PC-12 [20]): Active
Activity (PC-12 [21]): Dose-dependent-effect
Activity (PC-12 [2]): Active
Activity (SH-SY5Y): inactive
Activity (PC-12 [22]): Active
Activity (PC-12 [23]): Active
Activity (PC-12 [24]): Active
Activity (PC-12 [25]): Active
Activity (PC-12 [26]): 15.68 a.u.
Drug uptake [27]: Active
Activity (PC-12 [28]): Dose-dependent-effect
fold change (FC) (PC-12 [29]): 0.74
Activity (PC-12 [30]): 7.17 a.u.
fold change (FC) (PC-12 [31]): 1.4
Drug uptake [32]: Active
fold change (FC) (PC-12 [33]): 2.91
fold change (FC) (PC-12 [34]): 0.52
Drug uptake [35]: Active
Activity (PC-12 [36]): 3.7 a.u.
Activity (PC-12 [12]): Dose-dependent-effect
Activity (PC-12 [37]): 3.18 a.u.
Activity (PC-12 [38]): 11.01 a.u.
fold change (FC) (PC-12 [39]): 1.44
Activity (PC-12 [40]): Active

CC(C)C[C@H](NC(=O)OC(C)(C)C)C(=O)N[C@H](Cc1ccccc1)C(=O)N1CCC[C@H]1C(=O)N[C@H](C(=O)N[C@@H](CCCNC(=O)OCc1ccccc1)C(=O)O)C(C)C
Activity (SH-SY5Y): inactive
Activity (PC-12 [3]): Active
